# According to paper PMC10578354 (Journal of Medicinal Chemistry, 2023):
# Test system: T24 and 5637 bladder cancer cell lines and healthy bladder epithelial cells (BdECs)
# Assay: MTT proliferation assay
# Assay type: cell-based
# Settings: T24 and 5637 vs BdEC, 72 h treatment, Figure 6B
structure (smiles),measurement,value
"CN(C)CCOc1cccc(NC(=O)Cc2c[nH]c3cc(F)ccc23)c1 [NMX-10095, N-(3-(2-(Dimethylamino)ethoxy)phenyl)-2-(6-fluoro-1H-indol-3-yl)acetamide]","inhibition of cell proliferation, cancer vs healthy cells",differential inhibition of cell proliferation
